Experiments:
Experiment in all cases: In vitro cytotoxicity assay (resazurin reduction test)
Type in all cases: cell-based
[1] = test system: Breast cancer adenocarcinoma MCF 7; conditions: Homo sapiens; MCF7; 48-h continuous drug exposure
Source text: (§1) Normal human fibroblasts were purchased from Promocell (Heidelberg, Germany). This frozen culture was obtained from foreskin waste and the cells used in this work were from the seventh to twelfth passage of the culture. M4Beu, a human melanoma cell line, was established in the laboratory of Dr. J. F. Doré (INSERM, Unit 218, Lyon, France) from metastatic biopsy specimens and maintained in cell culture for almost 20 years in our lab. Breast cancer adenocarcinoma MCF 7, prostatic adenocarcinoma PC 3, colon adenocarcinoma DLD-1, lung non-small cell carcinoma A 549, ovary adenocarcinoma PA1 human cell lines and L 929 murine cell line were purchased from the European Collection of Cell Cultures (ECACC; Salisbury, United Kingdom). Murine Melanoma B16 was purchased from American Type of Culture Collection (ATCC, Manassas, USA) and murine colon carcinoma cell line CT-26 was obtained from Dr I. J. Fidler (University of Texas M.D. Anderson Cancer Center, Houston).
(§2) Stock cell cultures were maintained as monolayers in 75cm^2 culture flasks in Glutamax Eagle's minimum essential medium with Earle's salts (MEM; Gibco BRL, Paisley, UK) supplemented with 10% fetal calf serum (Sigma, St Quentin Fallavier, France), 1 mM sodium pyruvate (Gibco), 1X vitamins solution (Gibco), 1X non essential amino acids solution (Gibco) and 4 µg/ml of gentamicine (Gibco). Cells were grown at 37°C in a humidified atmosphere containing 5% CO2.
(§3) Cells were plated at a density of 5 x 10^3 cells per well in 96-well microplates (Nunclon™, Nunc, Roskilde, Denmark) in 150 µl of culture medium and were allowed to adhere for 16 h before treatment with the compound tested.
(§4) Stock solution of each compound was prepared in dimethylsulfoxide (DMSO) and kept at -20°C. until use. The percentage of DMSO was kept at 0.5% (v/v) whichever the concentration tested. […] Fifty microliters of a 4X solution in MEM was then added and a 48-h continuous drug exposure protocol was used. Then, the cytotoxic effect of compounds on tumour cells was tested by using Resazurin reduction test.
(§5) Resazurin was identified as the Alamar blue dye (O'Brien, J. et al.; European Journal of Biochemistry, 267, 5421-6, (2000)). The resazurin reduction test (RRT) was carried out according to the protocol described here. Briefly, plates were rinsed by 200 µl PBS (37° C, Gibco) using a multichannel dispenser (Labsystems, Helsinki, Finland) and emptied by overturning on absorbent toweling. Then, 150 µl of a 25 µg/ml solution of resazurin in MEM without SVF nor Phenol red was added in each well. The plates were incubated 1 h at 37° C. in an humidified atmosphere with 5% of CO2 for fluorescence development by living cells. Fluorescence was then measured on the automated 96-well plate reader Fluoroskan Ascent FL™ (Labsystems) using an excitation wavelength of 530 nm and an emission one of 590 nm.
(§6) Cytotoxic activity has been tested against the six human tumour cell lines breast adenocarcinoma MCF-7, colon adenocarcinoma DLD-1, ovary adenocarcinoma PA1, prostatic adenocarcinoma PC3, lung carcinoma A549, melanoma M4Beu and a primary culture of human fibroblasts.

[2] = test system: M4Beu, a human melanoma cell line; conditions: 48-h continuous drug exposure
Source text: as §1, §2, §3, §4, §5, §6

Normal human fibroblasts = conditions: Fibroblast, 48-h continuous drug exposure
Source text: as §1, §2, §3, §4, §5, §6

[3] = test system: colon adenocarcinoma DLD-1; conditions: Homo sapiens, DLD1, 48-h continuous drug exposure
Source text: as §1, §2, §3, §4, §5, §6

[4] = test system: lung non-small cell carcinoma A 549; conditions: Homo sapiens; A549; 48-h continuous drug exposure
Source text: as §1, §2, §3, §4, §5, §6

ovary adenocarcinoma PA1 = conditions: Homo sapiens, 48-h continuous drug exposure
Source text: as §1, §2, §3, §4, §5, §6

[5] = test system: prostatic adenocarcinoma PC 3; conditions: Homo sapiens; PC3; 48-h continuous drug exposure
Source text: as §1, §2, §3, §4, §5, §6

Murine Melanoma B16 = conditions: Mus musculus, 48-h continuous drug exposure
Source text: as §1, §2, §3, §4, §5

[6] = test system: murine colon carcinoma cell line CT-26; conditions: Mus musculus; CT26; 48-h continuous drug exposure
Source text: as §1, §2, §3, §4, §5

Row | Compound | IC50 [1] [µM] | IC50 [2] [µM] | IC50 (Normal human fibroblasts) [µM] | IC50 [3] [µM] | IC50 [4] [µM] | IC50 (ovary adenocarcinoma PA1) [µM] | IC50 [5] [µM] | IC50 (Murine Melanoma B16) [µM] | IC50 [6] [µM]
1 | CC(=O)OC[C@H]1O[C@@H](NC(=O)NCCCc2ccc(N(CCCl)CCCl)cc2)[C@H](F)[C@@H](OC(C)=O)[C@@H]1OC(C)=O [Compound 17a, N-(3,4,6-tri-O-acetyl-2-deoxy-2-fluoro-β-D-glucopyranosyl)-N'-{3-(4-[bis(2-chloroethyl)amino]phenyl)propyl}urea] | 26.4 ± 0.6 | 27 ± 11 | 13 ± 2 | 7 ± 3 | 8 ± 2 | 0.6 ± 0.2 | 4 ± 1 |  | 
2 | CC(=O)OC[C@H]1O[C@@H](NC(=O)c2ccc(NC(=O)CCCc3ccc(N(CCCl)CCCl)cc3)cc2)[C@H](F)[C@@H](OC(C)=O)[C@@H]1OC(C)=O [Compound 20a, N-(3,4,6-tri-O-acetyl-2-deoxy-2-fluoro-β-D-glucopyranosyl)-4-(4-{4-[bis(2-chloroethyl)amino]phenyl}butanamido)benzamide] | 5 ± 2 | 7 ± 3 | 4 ± 2 | 3 ± 2 | 2.7 ± 0.6 | 0.3 ± 0.1 | 1.4 ± 0.3 | 4.6 ± 0.3 | 1.7 ± 0.3
3 | CC(=O)OC[C@H]1O[C@@H](NC(=O)CCNC(=O)CCCc2ccc(N(CCCl)CCCl)cc2)[C@H](F)[C@@H](OC(C)=O)[C@@H]1OC(C)=O [Compound 31a, N-[3-(3,4,6-tri-O-acetyl-2-deoxy-2-fluoro-β-D-glucopyranosylamino)-3-oxopropyl]-4-{4-[bis(2-chloroethyl)amino]phenyl}butanamide] | 13 ± 5 | 15 ± 3 | 7 ± 5 | 11 ± 4 | 9.2 ± 0.5 | 0.24 ± 0.08 | 3.7 ± 0.3 |  | 
4 | CC(=O)OC[C@H]1O[C@@H](Oc2ccc(NC(=O)CCCc3ccc(N(CCCl)CCCl)cc3)cc2)[C@H](F)[C@@H](OC(C)=O)[C@@H]1OC(C)=O [Compound 37a, N-[4-(3,4,6-tri-O-acetyl-2-deoxy-2-fluoro-β-D-glucopyranosyloxy)phenyl]-4-{4-[bis(2-chloroethyl)amino]phenyl}butanamide] | 26 ± 11 | > 50 | > 50 | 10 ± 5 | 1.9 ± 0.01 | 0.76 ± 0.06 | 11 ± 4 |  | 
5 | CC(=O)OC[C@H]1O[C@@H](NC(=O)CCCNC(=O)CCCc2ccc(N(CCCl)CCCl)cc2)[C@H](F)[C@@H](OC(C)=O)[C@@H]1OC(C)=O [Compound 22a, N-[4-(3,4,6-tri-O-acetyl-2-deoxy-2-fluoro-β-D-glucopyranosylamino)-4-oxobutyl]-4-{4-[bis(2-chloroethyl)amino]phenyl}butanamide] | 12 ± 1 | 9 ± 3 | 4.1 ± 0.1 | 9 ± 2 | 13 ± 5 | 0.27 ± 0.04 | 3 ± 1 |  | 

Reference: patent EP1881000A1, “Conjugates of 2-fluoro-2-deoxy-glucose and their uses as anti cancer agents” (INSTITUT NATIONAL DE LA SANTE ET DE LA RECHERCHE MEDICALE …, priority 2006, dated 2008)
